Patent US20240140895A1, “NOVEL AROMATIC MOLECULES” (XENIOPRO GmbH, priority 2018, published 2024)

System: Notch signaling (human Notch1 receptor, hNotch1ΔE)
Experiment: Notch reporter assay (dual luciferase, HeLa cells transfected with hNotch1ΔE)
Format: cell-based
Conditions: 10 μM
Description: The activation level of Notch signaling can be quantified in vitro reliably by measuring the expression levels of Notch specific target genes. This can be accomplished by the quantification of corresponding mRNA or protein of a particular Notch target gene. Alternatively, cells can be genetically modified to carry a luciferase gene as an artificial Notch target gene, which is expressed in dependence of Notch activity. In this setting, Notch signaling levels can be quantified by measuring the luciferase-derived bioluminescence values.
An according Notch-reporter assay, i.e. a luciferase-based luminescence readout, was used here to quantify the ability of the claimed compounds to augment Notch signaling in a cellular system. […] After 24 hours of transfection, the transfected cells were carefully detached from the dish using 0.5 mM EDTA in PBS and seeded into 96-well plates suitable for luminescence readouts (CORNING, #3610) at 10,000 cells per well. […] Directly after the lysis, first the Firefly and then the Renilla luciferase values were measured consecutively from the same well with a luminescence reader immediately after applying 15 μL per well each of the corresponding enzyme substrates needed to create the luminescence signals (Promega, Dual-Luciferase® Reporter Assay System, #E1910). […]

## O=Cc1ccc(Oc2ccc(C3CCCCC3)cc2)cc1 [XPA-0020]
  Activity Range: weighted arithmetic mean (AVEw) of double-normalized Notch-reporter luminescence, relative to DMSO basis level 1.0: 2.0 ≤ AVEw
